Experiments:
[1] = target: T1, Receptor-type tyrosine-protein phosphatase C (Homo sapiens, UniProt P08575); parameters: species or system Escherichia coli;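 note: inhibition of CD45 enzyme activity measured using DiFMUP as substrate; in other assays of this panel Not Active means under 50% inhibition at 10 µM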
T1 sequence (P08575 whole entry): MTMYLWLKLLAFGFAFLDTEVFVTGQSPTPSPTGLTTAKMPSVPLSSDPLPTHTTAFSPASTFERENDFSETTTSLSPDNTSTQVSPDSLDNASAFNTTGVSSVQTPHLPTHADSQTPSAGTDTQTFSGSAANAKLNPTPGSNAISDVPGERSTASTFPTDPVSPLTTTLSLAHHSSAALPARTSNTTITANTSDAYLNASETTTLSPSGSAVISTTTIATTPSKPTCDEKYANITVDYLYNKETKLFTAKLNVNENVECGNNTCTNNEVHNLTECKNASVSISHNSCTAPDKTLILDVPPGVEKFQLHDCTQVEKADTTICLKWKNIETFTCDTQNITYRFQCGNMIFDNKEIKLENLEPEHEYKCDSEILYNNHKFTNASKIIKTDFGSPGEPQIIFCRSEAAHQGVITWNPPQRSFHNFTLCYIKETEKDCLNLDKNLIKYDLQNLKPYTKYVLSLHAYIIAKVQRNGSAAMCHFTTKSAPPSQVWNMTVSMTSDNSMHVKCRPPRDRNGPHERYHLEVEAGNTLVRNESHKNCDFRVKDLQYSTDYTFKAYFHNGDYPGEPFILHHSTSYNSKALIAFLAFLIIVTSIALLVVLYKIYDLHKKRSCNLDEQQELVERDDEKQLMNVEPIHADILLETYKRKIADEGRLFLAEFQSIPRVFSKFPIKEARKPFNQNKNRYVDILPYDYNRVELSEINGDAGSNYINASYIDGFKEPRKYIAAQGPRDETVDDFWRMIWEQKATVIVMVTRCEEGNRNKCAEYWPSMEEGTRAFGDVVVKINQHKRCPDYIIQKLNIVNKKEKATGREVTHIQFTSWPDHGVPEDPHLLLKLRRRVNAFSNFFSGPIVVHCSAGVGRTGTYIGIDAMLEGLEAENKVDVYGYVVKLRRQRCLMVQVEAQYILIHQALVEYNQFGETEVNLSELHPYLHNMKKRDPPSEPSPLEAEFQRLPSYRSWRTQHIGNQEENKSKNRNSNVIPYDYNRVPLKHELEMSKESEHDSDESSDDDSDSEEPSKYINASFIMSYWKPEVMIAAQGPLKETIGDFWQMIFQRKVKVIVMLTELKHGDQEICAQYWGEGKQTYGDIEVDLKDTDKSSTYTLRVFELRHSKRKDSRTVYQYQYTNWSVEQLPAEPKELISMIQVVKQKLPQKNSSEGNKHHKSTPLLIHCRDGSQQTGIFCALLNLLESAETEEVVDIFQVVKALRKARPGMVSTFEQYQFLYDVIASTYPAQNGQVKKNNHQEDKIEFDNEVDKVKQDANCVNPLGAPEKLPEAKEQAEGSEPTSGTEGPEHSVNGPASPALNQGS

[2] = target: Delta-type opioid receptor (Homo sapiens, UniProt P41143); assay type: cell membranes, Membrane; details: hek293; note: in other assays of this panel Not Active means under 50% inhibition at 10 µM
Cytochrome P450 2E1 = Cytochrome P450 2E1 (Homo sapiens, UniProt P05181); details: bti-tn-5b1-4; note: in other assays of this panel Not Active means under 50% inhibition at 10 µM
[3] = DRUGMATRIX: Phorbol Ester radioligand binding (ligand: [3H] PDBu); assay type: cell membranes, Mus musculus, ICR, Brain, Membrane; details: Not Active = under 50% inhibition at 10 µM
[4] = target: T2, Neuropeptide Y receptor type 2 (Homo sapiens, UniProt P49146); assay type: cell membranes, KAN-TS, Membrane; details: kan-ts; note: in other assays of this panel Not Active means under 50% inhibition at 10 µM
T2 sequence (P49146 whole entry): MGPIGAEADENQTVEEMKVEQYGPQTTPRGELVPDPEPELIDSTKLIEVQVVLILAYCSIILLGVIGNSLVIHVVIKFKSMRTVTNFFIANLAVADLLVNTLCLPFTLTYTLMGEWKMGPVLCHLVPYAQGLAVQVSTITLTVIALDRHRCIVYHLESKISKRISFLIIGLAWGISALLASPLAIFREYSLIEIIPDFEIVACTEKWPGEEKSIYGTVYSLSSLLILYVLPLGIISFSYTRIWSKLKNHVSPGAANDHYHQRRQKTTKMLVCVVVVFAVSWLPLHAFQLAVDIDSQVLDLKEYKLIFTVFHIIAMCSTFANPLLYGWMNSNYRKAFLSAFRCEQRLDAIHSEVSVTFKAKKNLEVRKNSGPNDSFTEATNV

[5] = target: T3, C-X-C chemokine receptor type 1 (Homo sapiens, UniProt P25024); note: in other assays of this panel Not Active means under 50% inhibition at 10 µM
T3 sequence (P25024 whole entry): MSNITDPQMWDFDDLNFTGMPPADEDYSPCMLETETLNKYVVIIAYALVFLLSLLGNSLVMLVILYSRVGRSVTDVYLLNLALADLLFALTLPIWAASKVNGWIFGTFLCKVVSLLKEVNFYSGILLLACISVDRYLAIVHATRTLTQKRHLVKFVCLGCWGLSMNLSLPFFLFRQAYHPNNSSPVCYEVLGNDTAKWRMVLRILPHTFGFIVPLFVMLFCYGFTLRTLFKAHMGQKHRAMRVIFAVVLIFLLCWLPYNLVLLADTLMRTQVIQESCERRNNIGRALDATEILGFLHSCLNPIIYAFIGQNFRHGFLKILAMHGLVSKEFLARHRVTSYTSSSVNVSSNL

[6] = DRUGMATRIX: Tumor Necrosis Factor (TNF), Non-Selective radioligand binding (ligand: [125I] TNF-alpha); assay type: cell membranes, Membrane; details: u-937; Not Active = under 50% inhibition at 10 µM
[7] = DRUGMATRIX: Phosphodiesterase PDE4 enzyme inhibition (substrate: [3H]cAMP + cAMP); details: u-937; Not Active = under 50% inhibition at 10 µM
Vasopressin V1a receptor = Vasopressin V1a receptor (Homo sapiens, UniProt P37288); assay type: cell membranes, Membrane; details: hek293; note: in other assays of this panel Not Active means under 50% inhibition at 10 µM
Chain of Vasopressin V1a receptor (P37288 whole entry): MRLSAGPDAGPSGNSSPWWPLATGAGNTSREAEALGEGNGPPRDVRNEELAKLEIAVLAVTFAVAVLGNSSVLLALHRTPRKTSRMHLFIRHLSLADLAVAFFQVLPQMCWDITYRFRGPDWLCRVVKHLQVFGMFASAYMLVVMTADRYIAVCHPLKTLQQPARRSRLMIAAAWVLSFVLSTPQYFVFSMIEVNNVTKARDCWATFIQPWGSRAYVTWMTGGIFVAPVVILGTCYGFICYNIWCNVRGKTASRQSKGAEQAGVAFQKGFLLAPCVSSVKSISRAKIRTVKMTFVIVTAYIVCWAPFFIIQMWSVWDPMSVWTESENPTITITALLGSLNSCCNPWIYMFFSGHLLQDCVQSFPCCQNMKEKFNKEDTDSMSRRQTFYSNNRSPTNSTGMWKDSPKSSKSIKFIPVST

Chain of Delta-type opioid receptor (P41143 whole entry): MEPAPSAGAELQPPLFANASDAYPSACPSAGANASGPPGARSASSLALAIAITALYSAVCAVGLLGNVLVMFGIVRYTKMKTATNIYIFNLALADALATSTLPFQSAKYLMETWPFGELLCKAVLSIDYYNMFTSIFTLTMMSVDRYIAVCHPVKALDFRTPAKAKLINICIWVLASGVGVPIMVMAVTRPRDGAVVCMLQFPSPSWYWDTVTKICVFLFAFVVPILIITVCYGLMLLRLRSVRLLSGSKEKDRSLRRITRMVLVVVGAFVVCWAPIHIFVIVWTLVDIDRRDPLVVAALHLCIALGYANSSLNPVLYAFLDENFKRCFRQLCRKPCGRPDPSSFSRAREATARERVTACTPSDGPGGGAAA
Chain of Cytochrome P450 2E1 (P05181 whole entry): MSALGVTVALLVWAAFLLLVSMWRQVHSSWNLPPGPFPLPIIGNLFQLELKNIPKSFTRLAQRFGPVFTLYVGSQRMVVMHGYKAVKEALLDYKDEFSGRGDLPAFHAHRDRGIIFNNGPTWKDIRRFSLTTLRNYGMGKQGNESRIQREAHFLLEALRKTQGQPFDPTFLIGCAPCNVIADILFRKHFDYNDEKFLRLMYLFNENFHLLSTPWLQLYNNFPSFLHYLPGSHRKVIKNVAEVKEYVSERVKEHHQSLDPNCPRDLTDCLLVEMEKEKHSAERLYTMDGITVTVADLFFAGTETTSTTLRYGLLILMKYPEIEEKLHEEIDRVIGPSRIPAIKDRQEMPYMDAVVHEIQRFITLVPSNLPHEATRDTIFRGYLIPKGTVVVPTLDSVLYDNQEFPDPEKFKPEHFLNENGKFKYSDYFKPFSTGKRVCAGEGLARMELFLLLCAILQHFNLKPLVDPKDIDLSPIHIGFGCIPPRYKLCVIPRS

C[n+]1ccc(-c2cc[n+](C)cc2)cc1.[Cl-].[Cl-] [PARAQUAT DICHLORIDE]
Not Active: IC50 [1] | IC50 [2] | IC50 (Cytochrome P450 2E1) | Ki (Cytochrome P450 2E1) | IC50 [3] | Ki [3] | IC50 [4] | IC50 [5] | IC50 [6] | Ki [6] | IC50 [7] | Ki [7] | IC50 (Vasopressin V1a receptor)

CCn1cc(C(=O)O)c(=O)c2cnc(N3CCCC3)nc21 [PIROMIDIC ACID]
Not Active: IC50 [1] | IC50 [2] | IC50 (Cytochrome P450 2E1) | Ki (Cytochrome P450 2E1) | IC50 [3] | Ki [3] | IC50 [4] | IC50 [5] | IC50 [6] | Ki [6] | IC50 [7] | Ki [7] | IC50 (Vasopressin V1a receptor)

C[n+]1ccccc1/C=N/O.[Cl-] [PRALIDOXIME CHLORIDE]
Not Active: IC50 [1] | IC50 [2] | IC50 (Cytochrome P450 2E1) | Ki (Cytochrome P450 2E1) | IC50 [3] | Ki [3] | IC50 [4] | IC50 [5] | IC50 [6] | Ki [6] | IC50 [7] | Ki [7] | IC50 (Vasopressin V1a receptor)

COc1cc2nc(N3CCN(C(=O)c4ccco4)CC3)nc(N)c2cc1OC [PRAZOSIN]
Not Active: IC50 [1] | IC50 [2] | IC50 (Cytochrome P450 2E1) | Ki (Cytochrome P450 2E1) | IC50 [3] | Ki [3] | IC50 [4] | IC50 [5] | IC50 [6] | Ki [6] | IC50 [7] | Ki [7] | IC50 (Vasopressin V1a receptor)

C[C@]12C=CC(=O)C=C1CC[C@@H]1[C@@H]2[C@@H](O)C[C@@]2(C)[C@H]1CC[C@]2(O)C(=O)CO [PREDNISOLONE]
Not Active: IC50 [1] | IC50 [2] | IC50 (Cytochrome P450 2E1) | Ki (Cytochrome P450 2E1) | IC50 [3] | Ki [3] | IC50 [4] | IC50 [5] | IC50 [6] | Ki [6] | IC50 [7] | Ki [7] | IC50 (Vasopressin V1a receptor)

CC(=O)[C@H]1[C@H](C#N)C[C@H]2[C@@H]3CC=C4C[C@@H](O)CC[C@]4(C)[C@H]3CC[C@@]21C [PREGNENOLONE CARBONITRILE]
Not Active: IC50 [1] | IC50 [2] | IC50 (Cytochrome P450 2E1) | Ki (Cytochrome P450 2E1) | IC50 [3] | Ki [3] | IC50 [4] | IC50 [5] | IC50 [6] | Ki [6] | IC50 [7] | Ki [7] | IC50 (Vasopressin V1a receptor)

CCCN(CCC)S(=O)(=O)c1ccc(C(=O)O)cc1 [PROBENECID]
Not Active: IC50 [1] | IC50 [2] | IC50 (Cytochrome P450 2E1) | Ki (Cytochrome P450 2E1) | IC50 [3] | Ki [3] | IC50 [4] | IC50 [5] | IC50 [6] | Ki [6] | IC50 [7] | Ki [7] | IC50 (Vasopressin V1a receptor)

CCCNCC(O)COc1ccccc1C(=O)CCc1ccccc1 (stereo not given) [PROPAFENONE]
Not Active: IC50 [1] | IC50 [2] | IC50 (Cytochrome P450 2E1) | Ki (Cytochrome P450 2E1) | IC50 [3] | Ki [3] | IC50 [4] | IC50 [5] | IC50 [6] | Ki [6] | IC50 [7] | Ki [7] | IC50 (Vasopressin V1a receptor)

CCCOc1ccc(C(=O)OCCN(CC)CC)cc1N [PROPARACAINE]
Not Active: IC50 [1] | IC50 [2] | IC50 (Cytochrome P450 2E1) | Ki (Cytochrome P450 2E1) | IC50 [3] | Ki [3] | IC50 [4] | IC50 [5] | IC50 [6] | Ki [6] | IC50 [7] | Ki [7] | IC50 (Vasopressin V1a receptor)

C[C@@H]1O[C@@H](O[C@@H]2C=C3CC[C@@H]4[C@H](CC[C@]5(C)[C@@H](c6ccc(=O)oc6)CC[C@]45O)[C@@]3(C)CC2)[C@H](O)[C@H](O)[C@H]1O [PROSCILLARIDIN]
Not Active: IC50 [1] | IC50 [2] | IC50 (Cytochrome P450 2E1) | Ki (Cytochrome P450 2E1) | IC50 [3] | Ki [3] | IC50 [4] | IC50 [5] | IC50 [6] | Ki [6] | IC50 [7] | Ki [7] | IC50 (Vasopressin V1a receptor)
